According to US20120208781A1, “AMINOGLYCOSIDE DOSING REGIMENS” (Achaogen, Inc., priority 2009, published 2012):
Values after ≈ are worked out from the molar mass of the structure shown. Values joined by “and” are separate entries in the source; they are usually repeats but may differ in a detail not shown here. Equal entries are not always repeated. Where two headings read alike, the source gives them in different places.

Experiments:
[1] = Pharmacokinetics of Compound 1 after single bolus IV injection in beagle dogs (plasma); format: in vivo; settings: for AUC(0-inf) / C0 / clearance / MRT inf / Vd: iv; for MRT inf: read-out: MRT0-∞
Protocol: Male CD-1 mice, Sprague Dawley rats, and beagle dogs were administered Compound 1 intravenously. Compound 1 was preformulated as a sterile isotonic solution of 10 mg/mL in PBS. Specifically, male CD-1 mice were administered a single bolus IV injection of the Compound at 10 mg/kg, via a bolus IV injection into the tail vein. Two blood samples per mouse were collected by retro-orbital puncture into tubes containing the anticoagulant K2EDTA prior to dosing and at 0.033, 0.083, 0.25, 0.5, 1 and 24 hours. Rats were administered Compound 1 at 10 mg/kg via a bolus IV injection into the tail vein. Twelve blood samples per rat were collected via a jugular vein cannula into tubes containing the anticoagulant K2EDTA at various timepoints (i.e., 0.033, 0.083, 0.25, 0.5, 1, 2, 4, 6, 8, 10, 12, and 24 hours). Male beagle dogs were administered Compound 1 at 10 mg/kg through a temporary percutaneous catheter placed in a peripheral vein. Whole blood samples (0.5 mL) were collected from each dog prior to dosing and at 0.033, 0.083, 0.25, 0.5, 1, 2, 4, 6, 8, and 24 hours via direct venipuncture of a jugular or cephalic vein into tubes containing the anticoagulant K2EDTA. A sparse sampling method was employed to conserve animals and provide the best data possible from fewer mice. Samples were centrifuged, and plasma was collected and transferred into a new tube and frozen at −80° C. until they were analyzed.
Blood, urine, and kidney samples collected over 24 hours were analyzed for Compound 1 levels using LC-MS/MS. Method performance was acceptable in the concentration ranges necessary to determine plasma levels. Compound 1 plasma concentrations were determined by comparing Compound 1 concentration in the sample to a standard curve derived from LC-MS/MS measurements of the analyte. The standard curve fit was linear with a 1/x^2 weighting.
Bioanalytical data analyses were carried out using Analyst software (version 1.4.1, Applied Biosystems, Toronto, ON, Canada). […] PK parameters were determined by noncompartmental analysis using WinNonLin. Plasma protein binding was determined using equilibrium dialysis. In vitro stability was determined using commercially available plasma, microsomes and hepatocytes.

Enterobacteriaceae (ENT) = assay: MIC, CLSI broth microdilution, worldwide isolates: Enterobacteriaceae; format: cell-based
From the text: In the first study, a total of 235 isolates were collected from medical centers worldwide and tested for susceptibility to Compound 1 and comparator agents by CLSI broth microdilution methods. […] Non-ENT GN pathogens included WT P. aeruginosa (PSA) and Acinetobacter spp. (ACB), and carbapenem (CARB)-R strains, including those with MBL and OXA enzymes, SA and coagulase-negative staphylococci (CoNS) included oxacillin-susceptible (MSSA/MS-CoNS) and —R (MRSA/MR-CoNS) strains.
Minimum inhibitory concentrations (MIC) were determined by reference Clinical and Laboratory Standards Institute (CLSI) broth microdilution methods per M7-A7 [2006]. Briefly, serial two-fold dilutions of Compound 1 and comparator AGs (together, “the test compounds”) were prepared at 2× concentration in appropriate diluent. The dilutions were mixed in 96-well assay plates with bacterial inoculum. Bacteria were suspended in sterile saline and added to each assay plate to obtain a final concentration of 5.5×10^5 CFU/mL. The plates were incubated at 35° C. for 20 hours in ambient air. […] After incubation, assay plates were read using a microtiter plate reader at 600 nm.

K. pneumoniae (KP) = assay: MIC, broth microdilution, Brooklyn hospital isolates: K. pneumoniae; format: cell-based; settings: Klebsiella pneumoniae; KP (n = 71)
Protocol: In another study, the activity of Compound 1 against a collection of contemporary Gram-negative bacteria was determined. Unique patient isolates of P. aeruginosa (PA), A. baumannii (AB), K. pneumoniae (KP), E. coli (EC), and Enterobacter spp. (EB) from prior surveys at 16 Brooklyn, N.Y. hospitals were selected based on resistance patterns. The majority of isolates were fingerprinted by automated ribotyping. MICs were performed by broth microdilution. PCR was used to identify aminoglycoside-modifying enzymes (AMEs) in AB and KP and the KPC gene in Enterobacteriaceae (EN). The expression of the efflux genes mexA, C, E and X in PA, and adeB in AB was assessed by real-time RT-PCR.

[2] = Prediction of human plasma levels and half-life of Compound 1 from mouse, rat and dog data (allometric scaling); settings: humans
Protocol: The PK profile of Compound 1 supports use of high doses in short infusions, administered once-daily to achieve high Cmax and AUC, which are important for both efficacy and safety.
In the phase 1 clinical studies described herein, Compound 1 was administered over a short infusion time period of 10 minutes. Based upon allometric scaling of the mouse, rat and dog nonclinical data, the Cmax associated with longer infusion time periods was predicted, as summarized in Table 21. As shown, longer infusion time periods are associated with lower Cmax, resulting in a lower Cmax to AUC ratio.

[3] = beagle dogs, 10 mg/kg single bolus IV, Mean ± SD, 10 mg/kg
[4] = male, beagle, dog, plasma, 10 mg/kg, beagle dogs, 10 mg/kg single bolus IV, Dog 601
[5] = male, beagle, dog, plasma, 10 mg/kg, beagle dogs, 10 mg/kg single bolus IV, Dog 602
[6] = male, beagle, dog, plasma, 10 mg/kg, beagle dogs, 10 mg/kg single bolus IV, Dog 603
[7] = male, beagle, dog, plasma, 10 mg/kg, beagle dogs, 10 mg/kg single bolus IV, Mean ± SD
[8] = Enterobacteriaceae, KPC, NMC, SME (15)

## CN[C@@H]1[C@@H](O)[C@@H](O[C@@H]2[C@@H](O)[C@H](O[C@H]3OC(CNCCO)=CC[C@H]3N)[C@@H](N)C[C@H]2NC(=O)[C@@H](O)CCN)OC[C@]1(C)O [Compound 1, 6′-(2-Hydroxy-ethyl)-1-(4-amino-2(S)-hydroxy-butyryl)-sisomicin]
[1]; beagle dogs, 10 mg/kg single bolus IV, Dog 601
  HL Lambda Z: 1.18 h
[1]; beagle dogs, 10 mg/kg single bolus IV, Dog 602
  HL Lambda Z: 1.24 h
[1]; beagle dogs, 10 mg/kg single bolus IV, Dog 603
  HL Lambda Z: 1.23 h
[1]; [3]
  AUC0-∞: 82600 ± 11500 ng·h/mL
  HL Lambda Z: 1.22 h and 1.22 ± 0.03 h
[1]; male, beagle, dog, plasma, intravenous, 10 mg/kg, dogs, read-out: t½ (renal clearance) (converted)
  half-life: ~1 h
[1]; [4]
  AUC(0-inf): 69400 ng·h/mL
  C0: 134 µg/mL
  clearance: 2.4 mL/min/kg
  MRT inf: 1.26 h
[1]; male, beagle, dog, plasma, 10 mg/kg, beagle dogs, 10 mg/kg single bolus IV, Dog 601, read-out: Vss
  Vd: 0.181 L
[1]; [5]
  AUC(0-inf): 88700 ng·h/mL
  C0: 119 µg/mL
  clearance: 1.88 mL/min/kg
  MRT inf: 1.32 h
[1]; male, beagle, dog, plasma, 10 mg/kg, beagle dogs, 10 mg/kg single bolus IV, Dog 602, read-out: Vss
  Vd: 0.149 L
[1]; [6]
  AUC(0-inf): 89700 ng·h/mL
  C0: 106 µg/mL
  clearance: 1.85 mL/min/kg
  MRT inf: 1.45 h
[1]; male, beagle, dog, plasma, 10 mg/kg, beagle dogs, 10 mg/kg single bolus IV, Dog 603, read-out: Vss
  Vd: 0.162 L
[1]; [7]
  AUC(0-inf): 83000 ng·h/mL
  C0: 120 µg/mL
  clearance: 2.05 mL/min/kg
  MRT inf: 1.34 h
[1]; male, beagle, dog, plasma, 10 mg/kg, beagle dogs, 10 mg/kg single bolus IV, Mean ± SD, read-out: Vss
  Vd: 0.164 ± 0.016 L
[1]; male, beagle, dog, plasma, 10 mg/kg, beagle dogs, 10 mg/kg single bolus IV, mean, read-out: volume of distribution at steady state
  Vd: 0.164 L/kg
Enterobacteriaceae (ENT)
  MIC50: ≤ 0.25 µg/mL
  MIC90: 2 µg/mL (≈ 3.37 µM)
Enterobacteriaceae (ENT); Enterobacteriaceae (125)
  Cumulative % inhibited at Cmpd. MIC 1: 80.0%
  Cumulative % inhibited at Cmpd. MIC 2: 92.0%
  Cumulative % inhibited at Cmpd. MIC 4: 98.4%
  Cumulative % inhibited at Cmpd. MIC 8: 98.4%
  Cumulative % inhibited at Cmpd. MIC 16: 98.4%
  Cumulative % inhibited at Cmpd. MIC 32: 98.4%
  Cumulative % inhibited at Cmpd. MIC 64: 98.4%
  Cumulative % inhibited at Cmpd. MIC >64: 100.0%
  Cumulative % inhibited at Cmpd. MIC ≦0.5: 56.0%
Enterobacteriaceae (ENT); Enterobacteriaceae, AmpC (20)
  Cumulative % inhibited at Cmpd. MIC 1: 85.0%
  Cumulative % inhibited at Cmpd. MIC 2: 95.0%
  Cumulative % inhibited at Cmpd. MIC 4: 95.0%
  Cumulative % inhibited at Cmpd. MIC 8: 95.0%
  Cumulative % inhibited at Cmpd. MIC 16: 95.0%
  Cumulative % inhibited at Cmpd. MIC 32: 95.0%
  Cumulative % inhibited at Cmpd. MIC 64: 95.0%
  Cumulative % inhibited at Cmpd. MIC >64: 100.0%
  Cumulative % inhibited at Cmpd. MIC ≦0.5: 75.0%
Enterobacteriaceae (ENT); Enterobacteriaceae, ESBL (20)
  Cumulative % inhibited at Cmpd. MIC 1: 90.0%
  Cumulative % inhibited at Cmpd. MIC 2: 95.0%
  Cumulative % inhibited at Cmpd. MIC 4: 95.0%
  Cumulative % inhibited at Cmpd. MIC 8: 95.0%
  Cumulative % inhibited at Cmpd. MIC 16: 95.0%
  Cumulative % inhibited at Cmpd. MIC 32: 95.0%
  Cumulative % inhibited at Cmpd. MIC 64: 95.0%
  Cumulative % inhibited at Cmpd. MIC >64: 100.0%
  Cumulative % inhibited at Cmpd. MIC ≦0.5: 65.0%
Enterobacteriaceae (ENT); [8]
  Cumulative % inhibited at Cmpd. MIC 1: 100.0%
  Cumulative % inhibited at Cmpd. MIC ≦0.5: 60.0%
Enterobacteriaceae (ENT); Enterobacteriaceae, MBL (10)
  Cumulative % inhibited at Cmpd. MIC 1: 80.0%
  Cumulative % inhibited at Cmpd. MIC 2: 90.0%
  Cumulative % inhibited at Cmpd. MIC 4: 100.0%
  Cumulative % inhibited at Cmpd. MIC ≦0.5: 80.0%
Enterobacteriaceae (ENT); Enterobacteriaceae, WT (60)
  Cumulative % inhibited at Cmpd. MIC 1: 70.0%
  Cumulative % inhibited at Cmpd. MIC 2: 88.3%
  Cumulative % inhibited at Cmpd. MIC 4: 100.0%
  Cumulative % inhibited at Cmpd. MIC ≦0.5: 41.7%
K. pneumoniae (KP)
  MIC50: 0.5 µg/mL (≈ 0.844 µM)
  MIC90: 1 µg/mL (≈ 1.69 µM)
[2]
  predicted Cmax with longer infusion time periods: lower Cmax
